Results on 9 molecules are retold here after PMC6270163, “Anti-inflammatory Lignans from the Fruits of Acanthopanax sessiliflorus” (Molecules, 2012).

Data set [1] deals with LPS-induced NO production in RAW 264.7 macrophage cells. In words: Inhibition of LPS-induced NO production (nitrite, Griess reagent). The note with it: pretreated 1 h with compounds, then LPS (1 μg/mL) for 24 h, mean ± SD, three independent experiments. Background: The Griess reaction detects nitrite, a stable product of nitric oxide.
Description: Assays for NO production and cell viability were carried out as previously described [23]. […] The plates were pretreated with various concentrations of samples for 30 min and incubated with LPS (1 μg/mL) for 24 h. The amount of NO was determined by the nitrite concentration in cultured RAW264.7 macrophage supernatants using the Griess reagent. The cell viability was evaluated by MTT reduction.
The nature of data set [2]: Cell viability by MTT reduction. The note with it: mouse. Background: Tetrazolium assays rely on reduction of a dye to a coloured formazan, in cell work by metabolically active cells.
Another data set deals with RAW 264.7 macrophages. In words: Cell viability by MTT reduction. The settings on record: for Cell toxicity / influence on cell viability (in words): RAW 264.7 cells treated with compounds.
Where [3] appears, read: Mus musculus, RAW264.7, read-out: IC50 (concentration that caused 50% inhibition of NO production), LPS-activated RAW 264.7 macrophage cells.
Setting [4] is: read-out: IC50 (concentration that caused 50% inhibition of NO production), LPS-activated RAW 264.7 macrophage cells.

The viability is a read-out of living cells in per cent, often relative to untreated cells.

Where two headings read alike, the source gives them in different places.

As to `COc1cc([C@H]2OC[C@H]3[C@@H]2CO[C@@H]3c2ccc3c(c2)OCO3)ccc1O[C@@H]1O[C@H](CO)[C@@H](O)[C@H](O)[C@H]1O` [Compound 9, simlexoside], the IC50 in data set [1] (setting [3]) was 53 ± 2.75 µM. In data set [2] (RAW 264.7 macrophages), this molecule yielded a viability at 24 h, 100 µM of 54.5 ± 2.21%. Besides, the “Cell toxicity / influence on cell viability (in words)” value with RAW 264.7 macrophages was “Some cell toxicity was observed”.
With (+)-pinoresinol [Compound 5], in data set [1] (setting [4]), the IC50 was found to be 10.3 ± 2.37 µM.
Take `COc1cc([C@H]2OC[C@H]3[C@@H]2CO[C@@H]3c2cc(OC)c(O[C@@H]3O[C@H](CO)[C@@H](O)[C@H](O)[C@H]3O)c(OC)c2)cc(OC)c1O` [Compound 8, acanthoside B]: the viability at 24 h, 100 µM in data set [2] amounted to 82.4 ± 1.27%.
Take `c1cc2c(cc1[C@@H]1OCC3C1CO[C@H]3c1ccc3c(c1)OCO3)OCO2` (single isomer, unassigned; (-)) [Compound 2, (−)-sesamin]: the IC50 in data set [1] (setting [3]) is 49.9 to 65.1 µM; in data set [1] (setting [4]) it was 38.9 ± 2.86 µM. Moreover, in data set [2], the viability at 24 h, 100 µM came out at 95.5 ± 2.01%.
For the molecule `O=C1OC[C@H](Cc2ccc3c(c2)OCO3)[C@H]1Cc1ccc2c(c1)OCO2` [Compound 3, (−)-hinokinin], the IC50 in data set [1] (setting [3]) came out at 21.6 ± 1.19 µM. The viability at 24 h, 100 µM in data set [2] (RAW 264.7 macrophages) amounted to 50.2 ± 1.55%. Also, the “Cell toxicity / influence on cell viability (in words)” value in the data set with RAW 264.7 macrophages is reported as “Some cell toxicity was observed”.
`COc1cc(OC)cc([C@@H](O)[C@H]2COC[C@@H]2Cc2ccc(O)c(O)c2)c1` [Compound 1, 3-(3',4'-dihydroxybenzyl)-4-[(7S),7-hydroxy-3,5-dimethoxybenzyl]tetrahydrofuran]: the IC50 in data set [1] (setting [3]) amounted to 49.9 ± 6.56 µM. In data set [2] (RAW 264.7 macrophages), this molecule came in with a viability at 24 h, 100 µM of 84.8 ± 2.71%.
With `COc1cc([C@H]2OC[C@@H]3[C@H]2CO[C@H]3c2ccc3c(c2)OCO3)ccc1O` [Compound 6, (+)-piperitol], the IC50 in data set [1] (setting [3]) was 22.3 ± 1.1 µM. Also, in data set [2] (RAW 264.7 macrophages), the viability at 24 h, 100 µM was found to be 84.1 ± 2.46%.
`N=C(N)NN` [Aminoguanidine, reference compound]: the IC50 in data set [1] (setting [4]) was found to be 6.51 ± 1.15 µM. Further, the “Cell viability (%)” value in the data set on RAW 264.7 macrophages (RAW 264.7 cells, at a concentration of 100 μM, MTT reduction, mean ± SD, three independent experiments) is recorded as 84.61 ± 2.50%.
On to `COc1cc([C@H]2OC[C@H]3[C@@H]2CO[C@@H]3c2ccc3c(c2)OCO3)ccc1O` [Compound 7, (+)-xanthoxylol], for which the values for the IC50 in data set [1] (setting [3]) and in data set [1] (setting [4]) were 27.6 µM and 21.6 ± 1.28 µM, respectively. Further, the viability at 24 h, 100 µM in data set [2] (RAW 264.7 macrophages) was 88.4 ± 3.71%.
